# Test results as given in BindingDB's records for doi:10.1016/j.bmcl.2005.10.013 (Universidad De Santiago De Compostela, 2005).
# What was measured:
# [1] = Inhibition of thrombin-induced platelet aggregation in human
# [2] = Noradrenaline induced vasorelaxant activity in intact rat aortic rings
SMILES,IC50 [1] [µM],IC50 [2] [µM]
"COc1cc(OC)cc(-c2cc3ccc(O)cc3oc2=O)c1 [3-(3,5-dimethoxyphenyl)-7-hydroxy-2H-chromen-2-one]",105,39.8
"COc1cc(OC)cc(-c2cc3cc(OC)ccc3oc2=O)c1 [6-methoxy-3-(3',5'-dimethoxyphenyl)coumarin]",> 25,42.6
"COc1cc(OC)cc(-c2cc3ccc(OC)cc3oc2=O)c1 [7-methoxy-3-(3',5'-dimethoxyphenyl)coumarin]",> 100,52.5
"COc1cc(OC)cc(-c2cc3cc(OC)cc(OC)c3oc2=O)c1 [6,8-dimethoxy-3-(3',5'-dimethoxyphenyl)coumarin]",> 100,> 100

# Second part, the compound after the results:
IC50 [1] [µM],IC50 [2] [µM],SMILES
,19.9,"Oc1ccc(/C=C/c2cc(O)cc(O)c2)cc1 [5-[(E)-2-(4-hydroxyphenyl)ethenyl]benzene-1,3-diol]"
62.3,38.9,"O=c1oc2cc(O)ccc2cc1-c1cc(O)cc(O)c1 [7-hydroxy-3-(3',5'-dihydroxyphenyl)coumarin]"
285,95.5,"O=c1oc2c(O)cc(O)cc2cc1-c1cc(O)cc(O)c1 [6,8-dihydroxy-3-(3',5'-dihydroxyphenyl)coumarin]"
30.1,10.6,"O=c1oc2ccc(O)cc2cc1-c1cc(O)cc(O)c1 [6-hydroxy-3-(3',5'-dihydroxyphenyl)coumarin]"
